Data from PMC10755736, “Modulating Liquid–Liquid Phase Separation of Nck Adaptor Protein against Enteropathogenic Escherichia coli Infection” (ACS Central Science, 2023).
“Also recorded” adds a separate entry of the source. Non-standard residues stand in square brackets, D forms with d. Residues, ends and D or L forms follow the SMILES beside them. *: point of attachment. Biotin = O=C1N[C@H]2[C@H](CS[C@H]2CCCCC(=O)*)N1; Benzoyl(4-SO2F) = O=C(c1ccc(S(=O)(=O)F)cc1)*; pY = N[C@@H](Cc1ccc(OP(=O)(O)O)cc1)C(=O)O; Dap = NC[C@H](N)C(=O)O

Key:
[1] = tested on: Nck puncta in Caco-2 cells; assay: Nck puncta number in Caco-2 cells overexpressing dsRed-Nck; type: cell-based; details: L17E 40 μM, p1 1 μM, N = 20 cells
From the text: Figure 6 Peptide p1 inhibits the formation of the Nck/N-WASP condensate in mammalian cells. (a) Schematic illustration showing inhibition of intracellular Nck coacervation by p1. (b) Confocal microscopic images showing the formation of Nck/N-WASP puncta in HeLa cells that overexpress GFP-N-WASP and dsRed-Nck. Scale bar: 10 μm. (c) FRAP analysis showing the Nck/N-WASP condensates in HeLa cells have fluidity properties based on the recovery of the GFP fluorescent signal after photobleaching in a two-photon microscope with excitation at 920 nm. Scale bar: 5 μm. […] L17E, 40 μM; p1, 1 μM. Statistical analyses of puncta number per cell in the control and experiment (L17E/p1). N = 20 cells. […]
concentrations were added to each well, followed by a 90-min incubation at 37 °C. Diluted streptavidin-HRP solution was then added, followed by substrate solution to develop cover at 450 nm, and recorded by a plate reader. […] And then the samples were scanned and measured at 20% IR Laser power with 30 s laser-on time on a Monolith NT.115 instrument (NanoTemper Technologies). The data were analyzed by KD fitting model (KD) or hill fitting model […]
Plasmid extraction was done using a plasmid DNA Maxi kit (Omega Bio-Tek, GA, USA). […] 48 h after transfection, cells were analyzed by fluorescent micrscopes. Cell viability was measured by a CCK8 assay (Thermo Fisher Scientific) according to its manual.

[2] = tested on: Nck-SH2K331A; assay: Covalent reaction of p1 with Nck-SH2 K331A mutant; type: binding; details: PBS, 37 °C, 1 min or 10 min; SDS-PAGE
Experimental: We next identified the residues in Nck-SH2 that are involved in the reaction with p1 by mass spectrometry. […] The Nck–p1 conjugate was digested with trypsin, and peptide fragments were analyzed with an in-line EASY-spray source and nano-LC UltiMate 3000 HPLC system interfaced with an Elite mass spectrometer, operated in the data-dependent acquisition (DDA) mode with one full MS scan at R = 60,000 (m/z = 200) mass followed by HCD MS/MS scans. […] The fragmentation spectral analysis of [EEHIpYXEVAAD(α)] + [HFKVQLK(β)] extracted by pLabel v2.4.3.0 (Figure 5a and Figure S6 in the Supporting Information)[38],[39] confirmed the ligand-directed conjugation of Nck-SH2 protein with p1 peptide. The underlined lysine residue in the β-chain sequence indicated the cross-linked site on the predicted Nck Lys331 residue. Next, we mutated Nck Lys331 to Ala, expressed and purified the Nck-SH2K331A mutant. […]
(§1) The reaction mixture of Nck and p1 were digested with trypsin. Digested peptides were analyzed with an in-line EASY-spray source and nano-LC UltiMate 3000 high-performance liquid chromatography system (Thermo Fisher, USA) interfaced with an Elite mass spectrometer (Thermo Fisher, USA). The eluted peptides were detected by the Elite mass spectrometer, which was operated in data-dependent mode with one full MS scan at R = 60,000 (m/z = 200) mass, followed by MS/MS scans. […]

[3] = tested on: Caco-2 cells; assay: Cell viability by CCK8 assay; type: cell-based
Experimental: concentrations were added to each well, followed by a 90-min incubation at 37 °C. Diluted streptavidin-HRP solution was then added, followed by substrate solution to develop cover at 450 nm, and recorded by a plate reader. For MST test, a series diluted solutions of the cy5 labeled peptides were incubated with 400 nM Nck for 30 min and loaded into 16 capillaries. And then the samples were scanned and measured at 20% IR Laser power with 30 s laser-on time on a Monolith NT.115 instrument (NanoTemper Technologies). The data were analyzed by KD fitting model (KD) or hill fitting model […]
A Cell Line Stably Expressing N-WASP
To establish a stable pool of cells for N-WASP overexpression, Caco-2 cells were infected at 70-80% confluency with the virus diluted in a suitable medium supplemented with 8 µg/ml […]. After 48 h of incubation, infected cells were treated with puromycin for 7-14 days. The selection medium was changed every 2 days. Under the same treatment conditions, uninfected parental cells were used as selection controls. […]
Plasmid extraction was done using a plasmid DNA Maxi kit (Omega Bio-Tek, GA, USA). […] 48 h after transfection, cells were analyzed by fluorescent micrscopes. Cell viability was measured by a CCK8 assay (Thermo Fisher Scientific) according to its manual. […]
Figure S10. […] The viability was measured at 450 nm absorbance.

[4] = tested on: Nck-SH2; assay: Covalent reaction of p1 with wild-type Nck-SH2; type: binding; details: cell lysate in vitro and in the cytosol
Experimental: Figure 5 Peptide p1 reacts with Lys 331. (a) MS/MS analysis of the conjugated site between p1 peptide and Nck-SH2 at Lys331. The corresponding mass data are shown in Figure S6 in the Supporting Information. […] Purified recombinant proteins were incubated with peptides in PBS buffer at 37 °C for 1 min (left) or 10 min (right). Molecular weight markers are shown in the middle. Red arrows indicate the covalent peptide–protein complex. […]
ether and purified by reverse-phase HPLC on a C18 column using acetonitrile/H2O (with 0.1% TFA) gradient on a reversed-phase C18 column, confirmed by MALDI-TOF MS analysis (Bruker, USA).
Pure peptides were lyophilized.
Crosslinking of Peptides with Nck in vitro
Purified peptides were incubated with the recombinantly expressed Nck protein (10 μM) in PBS buffer at 37 °C. After incubation, 5´ loading buffer was added into the solution and heated at 100 °C for 10 min. […]
as §1

CC[C@H](C)[C@H](NC(=O)[C@H](Cc1c[nH]cn1)NC(=O)[C@H](CCC(=O)O)NC(=O)[C@H](CCC(=O)O)NC(=O)CCCC[C@@H]1SC[C@@H]2NC(=O)N[C@@H]21)C(=O)N[C@@H](Cc1ccc(OP(=O)(O)O)cc1)C(=O)N[C@@H](CNC(=O)c1ccc(S(=O)(=O)F)cc1)C(=O)N[C@@H](CCC(=O)O)C(=O)N[C@H](C(=O)N[C@@H](C)C(=O)N[C@@H](C)C(=O)N[C@@H](CC(=O)O)C(N)=O)C(C)C [p1] (Biotin-EEHI[pY][Dap](Benzoyl(4-SO2F))EVAAD-NH2; N-terminus and C-terminus assumed)
number of Nck puncta [1]: reduced the number of Nck puncta
decline in Nck puncta numbers ([1]; 2 h): 50%
reactivity with Nck-SH2 K331A [2]: did not show noticeable reactivity; also recorded: abolished the covalent reaction
cytotoxicity ([3]; CCK8, p1 0.3125-10 μM with L17E 40 μM for 3 h, 48 h incubation): did not cause noticeable cytotoxicity
cell physiology or toxicity changes from side reactions of sulfonyl fluoride ([3]; inside cells): did not cause noticeable changes in the cell physiology or toxicity
reactivity with Nck-SH2 [4]: high reactivity with Nck-SH2
